Results reported in publication PMC10742472, “Synthesis and Characterisation of Platinum(II) Diaminocyclohexane Complexes with Pyridine Derivatives as Anticancer Agents” (International Journal of Molecular Sciences, 2023).

Legend:
HT29 (Colon) = experiment: MTT cytotoxicity assay, HT29; type: cell-based; details: 72 h exposure
U87 (Glioblastoma) = experiment: MTT cytotoxicity assay, U87; type: cell-based; details: 72 h exposure
MCF-7 (Breast) = experiment: MTT cytotoxicity assay, MCF-7; type: cell-based; details: 72 h exposure
H460 (Lung) = experiment: MTT cytotoxicity assay, H460; type: cell-based; details: 72 h exposure
A431 (Skin) = experiment: MTT cytotoxicity assay, A431; type: cell-based; details: 72 h exposure
Du145 (Prostate) = experiment: MTT cytotoxicity assay, Du145; type: cell-based; details: 72 h exposure
BE2-C (Neuroblastoma) = experiment: MTT cytotoxicity assay, BE2-C; type: cell-based; details: 72 h exposure
SJ-G2 (Glioblastoma) = experiment: MTT cytotoxicity assay, SJ-G2; type: cell-based; details: 72 h exposure
Calf-thymus DNA (ctDNA) = experiment: Fluorescent intercalator displacement (FID) ctDNA binding assay with ethidium bromide; parameters: Ka (binding coefficient) / KF (binding constant for fluorescence) / Kq (bimolecular quenching constant) / KSV (Stern–Volmer quenching constant): unit not given here; details: 75 µM ethidium bromide, 150 µM ctDNA, pH 7.0
Experimental: To achieve this, the fluorescent signal of a DNA intercalator, in this case, ethidium bromide (EtBr), is measured as increasing concentrations of PC are added. As the PC displaces the EtBr, the fluorescence of the mixture is diminished, and the DNA binding capacity of the complex can be calculated from the fluorescence measurement. Calf-thymus DNA (ctDNA) was used and saturated with EtBr. The change in fluorescence is monitored as the complex is titrated into this solution. Once the decrease in fluorescence plateaued, the titration was ended. […] The fluorescence was measured from 550-750 nm and excited at 480 nm. Importantly, the cuvette was inverted four times, and the solution was incubated for 3 min after the addition of […] to allow adequate time for the PCs to interact with the DNA before scanning. […] A plot of F0/F against [PC] using experimental values allowed the determination of Kq and KSV from the slope as per Equation (5). (5) […] where n is the number of ethidium ligands that are displaced per PC. It is important to note that this expression is a simplification of the true binding interaction, as it ignores the effect of EtBr on the binding equilibrium. […] A plot of Log10[(F0 - F)/F)] against Log10[PC] was used to determine KF and n from the intercept and slope, respectively.

MIA (Pancreas) = experiment: MTT cytotoxicity assay, MIA; type: cell-based; details: 72 h exposure
MCF10A (Breast, Normal) = experiment: MTT cytotoxicity assay, MCF10A non-cancer breast cells; type: cell-based; details: 72 h exposure
[1] = type: physicochemical
Experimental: Lipophilicity was calculated using RP-HPLC. A stock solution of each PC was injected at different isocratic ratios ranging from 70–90% solvent B (organic) at a flow rate of 1 mL·min^−1 [32, 33, 34]. The complexes have low solubility in water, often requiring DMSO to make concentrated solutions. Yet the LogK’ calculated using these experimental data indicated high lipophilicity, which is typical for 2+ charged complexes. […] When heat was applied, they would not precipitate out of the solution after cooling. This confirmed that a lack of persistence was the cause of the “observed” low solubility in H2O. […] Their increased lipophilicity may indicate they have the potential to be administered orally, a characteristic usually associated with Pt(IV) complexes. Other factors, such as stability and cellular absorption, would need to be considered before the potential of these Pt(II) anticancer agents could be evaluated.
Lipophilicity was evaluated using RP-HPLC, whereby LogKw is calculated by injecting a stock solution of the PC at different isocratic ratios ranging from 70–90% solvent B (organic) at a flow rate of 1 mL·min^−1. An Agilent Technologies 1260 Infinity machine equipped with a Phenomenex Onyx™ Monolithic C18 reverse phase column (100 × 4.6 mm, 130 Å) was used to determine purity. The mobile phase comprised 0.06% TFA in water (solvent A) and 0.06% TFA in 90:10 ACN:H2O mixture (solvent B). The PC peak was eluted outside the dead zero volume time to avoid inaccurate results. The dead zero volume time was determined using potassium iodide as an external dead volume marker, with further details in the Supplementary Materials. The subsequent peaks were recorded, and K was calculated using Equation (6). (6) K=tr−t0/t0 where K is the capacity factor, tr is the retention time of the analyte, and t0 is the dead time determined using a solution of KI in the same column. At least five different isocratic ratios were used to assess each PC, and each experiment was repeated three times. LogK’ was then calculated and plotted against the concentration of ACN in the mobile phase. […] (7) LogK^′=Sφ+LogKw where S is the slope, φ is the concentration of ACN in the mobile phase, and LogKw represents the capacity factor of the compound in 100% water (Figure S49).

## N.N.[Cl][Pt][Cl] [Cisplatin, reference compound]
HT29 (Colon)
  GI50: 11 ± 1.9 µM
U87 (Glioblastoma)
  GI50: 4 ± 1.1 µM
MCF-7 (Breast)
  GI50: 6.5 ± 0.8 µM
H460 (Lung)
  GI50: 2.4 ± 0.3 µM
A431 (Skin)
  GI50: 1.2 ± 0.1 µM
Du145 (Prostate)
  GI50: 1.9 ± 0.2 µM
BE2-C (Neuroblastoma)
  GI50: 0.4 ± 0.1 µM
SJ-G2 (Glioblastoma)
  GI50: 7.5 ± 1.3 µM

## [Cl][Pt][Cl].c1ccc(C2CCCN2)nc1 (stereo not drawn) [Complex 1, [Pt(PyPy)(Cl)2]]
Calf-thymus DNA (ctDNA)
  Binding Stoichiometry: 3.61
  KF (binding constant for fluorescence): 2.69 × 10^3
  KSV (Stern–Volmer quenching constant): 1.65 × 10^3
  Ka (binding coefficient): 5.05 × 10^4
  Kq (bimolecular quenching constant): 0.40 × 10^3
  n (molar equivalents of PC at the point of intersection): 0.91
  ΔFsat (change in fluorescence at the point of binding): 99.1
HT29 (Colon)
  GI50: 53 ± 1 µM
U87 (Glioblastoma)
  GI50: 36 ± 1.5 µM
MCF-7 (Breast)
  GI50: 30 ± 1 µM
H460 (Lung)
  GI50: 16 ± 1.7 µM
A431 (Skin)
  GI50: > 50 µM
Du145 (Prostate)
  GI50: > 50 µM
BE2-C (Neuroblastoma)
  GI50: > 50 µM
SJ-G2 (Glioblastoma)
  GI50: > 50 µM
MIA (Pancreas)
  GI50: > 50 µM
MCF10A (Breast, Normal)
  GI50: > 50 µM

## [Cl][Pt][Cl].c1ccc(-c2ncc[nH]2)nc1 [Complex 2, [Pt(ImPy)(Cl)2]]
Calf-thymus DNA (ctDNA)
  Binding Stoichiometry: 3.82
  KF (binding constant for fluorescence): 3.12 × 10^3
  KSV (Stern–Volmer quenching constant): 1.68 × 10^3
  Ka (binding coefficient): 2.75 × 10^4
  Kq (bimolecular quenching constant): 0.50 × 10^3
  n (molar equivalents of PC at the point of intersection): 1.18
  ΔFsat (change in fluorescence at the point of binding): 80.9
HT29 (Colon)
  GI50: 34 ± 2 µM
U87 (Glioblastoma)
  GI50: 30 ± 2 µM
MCF-7 (Breast)
  GI50: 25 ± 2.3 µM
H460 (Lung)
  GI50: 4 ± 1 µM
A431 (Skin)
  GI50: 42 ± 3.5 µM
Du145 (Prostate)
  GI50: 36 ± 1.3 µM
BE2-C (Neuroblastoma)
  GI50: 37 ± 4 µM
SJ-G2 (Glioblastoma)
  GI50: 14 ± 0.17 µM
MIA (Pancreas)
  GI50: 29 ± 2.3 µM
MCF10A (Breast, Normal)
  GI50: 13 ± 0.6 µM

## [Cl][Pt][Cl].c1ccc(-c2nc3ccccc3[nH]2)nc1 [Complex 3, [Pt(BImPy)(Cl)2]]
Calf-thymus DNA (ctDNA)
  Binding Stoichiometry: 3.40
  KF (binding constant for fluorescence): 3.72 × 10^3
  KSV (Stern–Volmer quenching constant): 2.18 × 10^3
  Ka (binding coefficient): 5.10 × 10^4
  Kq (bimolecular quenching constant): 0.51 × 10^3
  n (molar equivalents of PC at the point of intersection): 1.24
  ΔFsat (change in fluorescence at the point of binding): 110.3
HT29 (Colon)
  GI50: > 50 µM
U87 (Glioblastoma)
  GI50: 37 ± 2 µM
MCF-7 (Breast)
  GI50: 12 ± 1.2 µM
H460 (Lung)
  GI50: 15 ± 3.1 µM
A431 (Skin)
  GI50: 47 ± 2.5 µM
Du145 (Prostate)
  GI50: > 50 µM
BE2-C (Neuroblastoma)
  GI50: > 50 µM
SJ-G2 (Glioblastoma)
  GI50: 42 ± 1.5 µM
MIA (Pancreas)
  GI50: > 50 µM
MCF10A (Breast, Normal)
  GI50: 45 ± 3.2 µM

## N[C@H]1CCCC[C@@H]1N.[Pt+2].c1ccc(C2CCCN2)nc1 [Complex 4a, [Pt(2-pyrrolidin-2-yl pyridine)(1S,2S-(+)-diaminocyclohexane)]^2+]
[1]
  Lipophilicity: 2.68 ± 0.02
Calf-thymus DNA (ctDNA)
  Binding Stoichiometry: 1.48
  KF (binding constant for fluorescence): 6.20 × 10^3
  KSV (Stern–Volmer quenching constant): 4.16 × 10^3
  Ka (binding coefficient): 1.06 × 10^4
  Kq (bimolecular quenching constant): 0.83 × 10^3
  n (molar equivalents of PC at the point of intersection): 1.83
  ΔFsat (change in fluorescence at the point of binding): 135.0
HT29 (Colon)
  GI50: > 50 µM
U87 (Glioblastoma)
  GI50: 48 ± 2.6 µM
MCF-7 (Breast)
  GI50: 3.2 ± 0.6 µM
H460 (Lung)
  GI50: 4.4 ± 0.7 µM
A431 (Skin)
  GI50: 9 ± 2.3 µM
Du145 (Prostate)
  GI50: 47 ± 1.7 µM
BE2-C (Neuroblastoma)
  GI50: 37.5 ± 0.5 µM
SJ-G2 (Glioblastoma)
  GI50: 17 ± 1.9 µM
MIA (Pancreas)
  GI50: 12 ± 1 µM
MCF10A (Breast, Normal)
  GI50: 42 ± 3 µM

## N[C@H]1CCCC[C@@H]1N.[Pt+2].c1ccc(-c2ncc[nH]2)nc1 [Complex 5a, [Pt(2-(1H-Imidazol-2-yl)pyridine)(1S,2S-(+)-diaminocyclohexane)]^2+]
[1]
  Lipophilicity: 2.50 ± 0.02
Calf-thymus DNA (ctDNA)
  Binding Stoichiometry: 0.80
  KF (binding constant for fluorescence): 3.16 × 10^3
  KSV (Stern–Volmer quenching constant): 2.11 × 10^3
  Ka (binding coefficient): 5.89 × 10^4
  Kq (bimolecular quenching constant): 0.36 × 10^3
  n (molar equivalents of PC at the point of intersection): 0.87
  ΔFsat (change in fluorescence at the point of binding): 122.4
HT29 (Colon)
  GI50: 0.56 ± 0.1 µM
U87 (Glioblastoma)
  GI50: 0.036 ± 0.009 µM
MCF-7 (Breast)
  GI50: 0.15 ± 0.03 µM
H460 (Lung)
  GI50: 0.29 ± 0.05 µM
A431 (Skin)
  GI50: 0.37 ± 0.06 µM
Du145 (Prostate)
  GI50: 0.29 ± 0.07 µM
BE2-C (Neuroblastoma)
  GI50: 0.21 ± 0.04 µM
SJ-G2 (Glioblastoma)
  GI50: 2.7 ± 0.46 µM
MIA (Pancreas)
  GI50: 0.43 ± 0.07 µM
MCF10A (Breast, Normal)
  GI50: 0.15 ± 0.03 µM

## [Pt(2-(1H-Imidazol-2-yl)pyridine)(1R,2R-(+)-diaminocyclohexane)]^2+ [Complex 5b]
Calf-thymus DNA (ctDNA)
  Binding Stoichiometry: 0.78
  KF (binding constant for fluorescence): 3.66 × 10^3
  KSV (Stern–Volmer quenching constant): 2.54 × 10^3
  Ka (binding coefficient): 3.15 × 10^4
  Kq (bimolecular quenching constant): 0.41 × 10^3
  n (molar equivalents of PC at the point of intersection): 0.95
  ΔFsat (change in fluorescence at the point of binding): 165.9
HT29 (Colon)
  GI50: 0.75 ± 0.07 µM
U87 (Glioblastoma)
  GI50: 0.05 ± 0.01 µM
MCF-7 (Breast)
  GI50: 0.3 ± 0.07 µM
H460 (Lung)
  GI50: 0.37 ± 0.05 µM
A431 (Skin)
  GI50: 0.49 ± 0.07 µM
Du145 (Prostate)
  GI50: 0.44 ± 0.07 µM
BE2-C (Neuroblastoma)
  GI50: 0.3 ± 0.05 µM
SJ-G2 (Glioblastoma)
  GI50: 4.5 ± 0.6 µM
MIA (Pancreas)
  GI50: 0.56 ± 0.11 µM
MCF10A (Breast, Normal)
  GI50: 0.22 ± 0.03 µM

## [Pt(2-pyrrolidin-2-yl pyridine)(1R,2R-(+)-diaminocyclohexane)]^2+ [Complex 4b]
Calf-thymus DNA (ctDNA)
  Binding Stoichiometry: 1.17
  KF (binding constant for fluorescence): 5.77 × 10^3
  KSV (Stern–Volmer quenching constant): 3.85 × 10^3
  Ka (binding coefficient): 1.40 × 10^4
  Kq (bimolecular quenching constant): 0.74 × 10^3
  n (molar equivalents of PC at the point of intersection): 1.68
  ΔFsat (change in fluorescence at the point of binding): 121.0
HT29 (Colon)
  GI50: > 50 µM
U87 (Glioblastoma)
  GI50: 43 ± 0.67 µM
MCF-7 (Breast)
  GI50: 12.5 ± 0.76 µM
H460 (Lung)
  GI50: 31 ± 0.88 µM
A431 (Skin)
  GI50: 30 ± 4.7 µM
Du145 (Prostate)
  GI50: > 50 µM
BE2-C (Neuroblastoma)
  GI50: 31 ± 1.2 µM
SJ-G2 (Glioblastoma)
  GI50: > 50 µM
MIA (Pancreas)
  GI50: 43 ± 1 µM
MCF10A (Breast, Normal)
  GI50: 45 µM
